The results in this text go back to PubChem BioAssay AID296 (DTP/NCI, 2004).

The test deals with MX-1 breast xenograft, nude mice, tumor weight T/C. The test can be described thus: NCI In Vivo Anticancer Drug Screen. Data for tumor model Human Mammary Carcinoma MX-1 Xenograft (intrarenal inoculation) in NU/NU Swiss (nude) mice. Conditions: endpoint: mean tumor weight change, higher = larger tumour. A digest of the protocol:
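Compound dosed to mice with transplantable tumor; vehicle group as control. Endpoint survival or tumour size, reported as T/C.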
(In general: Xenograft models place foreign cells or tissue in a host animal.)

[1] abbreviates: dose: 100.0 mg/kg/injection, schedule: Q01DX010 (sc), vehicle: saline.
Setting [2] is: dose: 600.0 mg/kg/injection, schedule: Q04DX003 (sc), vehicle: Klucel (hydroxypropylcellulose) (HPC).
[3] abbreviates: dose: 1200.0 mg/kg/injection, schedule: Q04DX003 (sc), vehicle: Klucel (hydroxypropylcellulose) (HPC).
The mark [4] stands for this setting: dose: 300.0 mg/kg/injection, schedule: Q04DX003 (sc), vehicle: saline with Tween-80.
Where [5] appears, read: dose: 600.0 mg/kg/injection, schedule: Q04DX003 (sc), vehicle: saline with Tween-80.
Setting [6] is: dose: 1200.0 mg/kg/injection, schedule: Q04DX003 (sc), vehicle: saline with Tween-80.
The mark [7] stands for this setting: dose: 2400.0 mg/kg/injection, schedule: Q04DX003 (sc), vehicle: saline with Tween-80.
The mark [8] stands for this setting: dose: 150.0 mg/kg/injection, schedule: Q04DX003 (sc), vehicle: saline with Tween-80.

Molecules are shown by their SMILES. Values joined by “and” are separate entries in the source; they are usually repeats but may differ in a detail not shown here. Equal values may be shown once. Records with an inconclusive call do not appear.

Consider `Cc1cc(NCCCCCCCCNc2cc(C)nc3cc(N(C)C)ccc23)c2ccc(N(C)C)cc2n1`, for which the T/C by setting is: (dose: 150.0 mg/kg/injection, schedule: Q04DX003 (sc), vehicle: distilled water + Tween-80 + alcohol) 67 % of control; (dose: 300.0 mg/kg/injection, schedule: Q04DX003 (sc), vehicle: distilled water + Tween-80 + alcohol) 74 % of control; (dose: 600.0 mg/kg/injection, schedule: Q04DX003 (sc), vehicle: distilled water + Tween-80 + alcohol) 43 % of control; (dose: 1200.0 mg/kg/injection, schedule: Q04DX003 (sc), vehicle: distilled water + Tween-80 + alcohol) 71 % of control.

With `BrC[P+](CBr)(CBr)CBr`, the T/C reads like this: (dose: 100.0 mg/kg/injection, schedule: Q04DX003 (sc), vehicle: saline with Tween-80) 105 % of control; (dose: 200.0 mg/kg/injection, schedule: Q04DX003 (sc), vehicle: saline with Tween-80) 117 % of control; (dose: 400.0 mg/kg/injection, schedule: Q04DX003 (sc), vehicle: saline with Tween-80) 111 % of control.

Consider `CNNCc1ccc(C(=O)NC(C)C)cc1`, for which the T/C is, setting by setting: under setting [1], 57 % of control and 69 % of control; (dose: 400.0 mg/kg/injection, schedule: Q01DX010 (sc), vehicle: saline) 7 % of control.

With `C=C(Cl)C(=NC(C)(C)C)Nc1ccccc1C`, the T/C (dose: 75.0 mg/kg/injection, schedule: Q04DX003 (sc), vehicle: Klucel (hydroxypropylcellulose) (HPC)) is 96 % of control.

For the compound `COc1cc(NCCCCCCCNC(C)C)c2nccc(C)c2c1`, the T/C (dose: 37.5 mg/kg/injection, schedule: Q04DX003 (sc), vehicle: saline) is 93 % of control; the T/C (dose: 75.0 mg/kg/injection, schedule: Q04DX003 (sc), vehicle: saline) is 76 % of control; the T/C (dose: 150.0 mg/kg/injection, schedule: Q04DX003 (sc), vehicle: saline) was 66 % of control.

On to `COC(=O)Nc1nc2ccc(SC)cc2c(=O)[nH]1`, for which the T/C was 83 % of control (dose: 150.0 mg/kg/injection, schedule: Q04DX003 (sc), vehicle: Klucel (hydroxypropylcellulose) (HPC)); 116 % of control (dose: 300.0 mg/kg/injection, schedule: Q04DX003 (sc), vehicle: Klucel (hydroxypropylcellulose) (HPC)); 92 % of control under setting [2]; 86 % of control under setting [3].

With `CC[C@H](CC[C@@H](C)C1CC[C@H]2[C@@H]3CC=C4C[C@@H](OP(=O)(N5CC5)N5CC5)CC[C@]4(C)[C@H]3CC[C@]12C)C(C)C` (stereo not given in full), the T/C under setting [4] is 71 % of control, the T/C under setting [5] was 113 % of control, the T/C under setting [6] is 65 % of control and the T/C under setting [7] is 62 % of control.

Regarding `C1CCC2C[N-]CCC2C1.C1CCC2C[N-]CCC2C1.C1CCC2C[N-]CCC2C1.C1CCC2C[N-]CCC2C1.[Cl][Rh][Cl]` (stereo not given), the T/C was 107 % of control (dose: 18.0 mg/kg/injection, schedule: Q04DX003 (sc), vehicle: saline with Tween-80); 103 % of control (dose: 36.0 mg/kg/injection, schedule: Q04DX003 (sc), vehicle: saline with Tween-80); 86 % of control (dose: 72.0 mg/kg/injection, schedule: Q04DX003 (sc), vehicle: saline with Tween-80); 78 % of control (dose: 144.0 mg/kg/injection, schedule: Q04DX003 (sc), vehicle: saline with Tween-80).

In the case of `O=C(O)CSc1nc(-c2ccccc2)c(-c2ccccc2)n1-c1ccccn1`, the T/C (dose: 50.0 mg/kg/injection, schedule: Q01DX010 (sc), vehicle: water) was 196 % of control; the T/C (dose: 100.0 mg/kg/injection, schedule: Q01DX010 (sc), vehicle: water) is 50 % of control; the T/C (dose: 200.0 mg/kg/injection, schedule: Q01DX010 (sc), vehicle: water) is 78 % of control.

As to `Clc1ccc(C2SC=Cc3ccccc32)cc1` (stereo not given), the T/C runs as follows: under setting [2], 90 % of control; under setting [3], 115 % of control.

For `C=C1c2cccc(O)c2C(O)=C2C(=O)[C@]3(O)C(O)=C(C(N)=O)C(=O)[C@@H](N(C)C)[C@@H]3[C@@H](O)[C@H]12`, the T/C is 89 % of control (dose: 75.0 mg/kg/injection, schedule: Q04DX003 (ip), vehicle: Klucel (hydroxypropylcellulose) (HPC)); 74 % of control (dose: 150.0 mg/kg/injection, schedule: Q04DX003 (ip), vehicle: Klucel (hydroxypropylcellulose) (HPC)); 58 % of control (dose: 300.0 mg/kg/injection, schedule: Q04DX003 (ip), vehicle: Klucel (hydroxypropylcellulose) (HPC)).

Consider `C[N+](C)(C)c1ncnc2nc[nH]c12`, for which the T/C by setting is: (dose: 50.0 mg/kg/injection, schedule: Q01DX010 (sc), vehicle: saline) 57 % of control; under setting [1], 38 % of control.

As to `COC(=O)C[C@](O)(CCC(C)(C)O)C(=O)O[C@@H]1C(OC)=C[C@]23CCCN2CCc2cc4c(cc2[C@H]13)OCO4`, the T/C is, setting by setting: (dose: 0.15 mg/kg/injection, schedule: Q04DX003 (sc), vehicle: saline) 123 % of control; (dose: 0.31 mg/kg/injection, schedule: Q04DX003 (sc), vehicle: saline) 93 % of control; (dose: 0.63 mg/kg/injection, schedule: Q04DX003 (sc), vehicle: saline) 119 % of control; (dose: 1.25 mg/kg/injection, schedule: Q04DX003 (sc), vehicle: saline) 97 % of control.

Consider `CCCC(=O)O.CCCC(=O)O.CCCC(=O)O.CCCC(=O)O.[Rh].[Rh]`, for which the T/C is, setting by setting: (dose: 2.0 mg/kg/injection, schedule: Q04DX003 (sc), vehicle: suspension in saline) 99 % of control; (dose: 4.0 mg/kg/injection, schedule: Q04DX003 (sc), vehicle: suspension in saline) 115 % of control; (dose: 8.0 mg/kg/injection, schedule: Q04DX003 (sc), vehicle: suspension in saline) 80 % of control.

With `Cn1cnc([N+](=O)[O-])c1Sc1ncn[nH]1`, the T/C was 72 % of control (dose: 100.0 mg/kg/injection, schedule: Q04DX003 (sc), vehicle: suspension in saline); 95 % of control (dose: 200.0 mg/kg/injection, schedule: Q04DX003 (sc), vehicle: suspension in saline); 92 % of control (dose: 400.0 mg/kg/injection, schedule: Q04DX003 (sc), vehicle: suspension in saline).

As for `CN(C=O)C(C(=O)Nc1cccc2c(OC(=O)C(N(C)C=O)(N(C)C=O)N(C)C=O)c(N=Nc3ccc(S(=O)(=O)Nc4nccs4)cc3)cc(N=Nc3ccc(S(=O)(=O)Nc4nccs4)cc3)c12)(N(C)C=O)N(C)C=O` (tested in a mixture with another compound), the T/C is, setting by setting: under setting [4], 108 % of control; under setting [7], 90 % of control.

Regarding `CN(C)CCCNc1c2ccccc2nc2cccc([N+](=O)[O-])c12`, the T/C (dose: 0.37 mg/kg/injection, schedule: Q04DX003 (sc), vehicle: saline) is 78 % of control.

In the case of `CN=C(N)N/N=C(\C)c1ccc2oc3ccc(/C(C)=N/NC(N)=NC)cc3c2c1`, the T/C runs as follows: (dose: 75.0 mg/kg/injection, schedule: Q04DX003 (sc), vehicle: saline with Tween-80) 72 % of control; under setting [8], 86 % of control; under setting [4], 80 % of control.

`c1ccc([C@H]2CN3CCSC3=N2)cc1`: the T/C was 80 % of control (dose: 15.0 mg/kg/injection, schedule: Q04DX003 (sc), vehicle: saline); 71 % of control (dose: 30.0 mg/kg/injection, schedule: Q04DX003 (sc), vehicle: saline); 75 % of control (dose: 60.0 mg/kg/injection, schedule: Q04DX003 (sc), vehicle: saline).

Regarding `CN=S(=O)(OCCCCCOS(=O)(=NC)c1ccccc1)c1ccccc1` (stereo not given), under setting [5], the T/C is 76 % of control.

Take `N#CC(=C1C=CC(=NO)C=C1)c1ccc(Cl)cc1`: the T/C under setting [8] is 89 % of control, the T/C under setting [4] was 122 % of control and the T/C under setting [5] was 156 % of control.

`N=C(N)SCc1c2ccccc2c(CSC(=N)N)c2ccccc12`: the T/C is 93 % of control (dose: 300.0 mg/kg/injection, schedule: Q04DX003 (sc), vehicle: suspension in saline); 152 % of control (dose: 600.0 mg/kg/injection, schedule: Q04DX003 (sc), vehicle: suspension in saline); 112 % of control (dose: 1200.0 mg/kg/injection, schedule: Q04DX003 (sc), vehicle: suspension in saline); 89 % of control (dose: 2400.0 mg/kg/injection, schedule: Q04DX003 (sc), vehicle: suspension in saline).

In the case of `ClCc1ccc2ccccc2n1`, the T/C by setting is: under setting [8], 98 % of control; under setting [4], 98 % of control; under setting [6], 116 % of control.
